The SangsterLogP compilation

experiment: method code SF-AS, from DOI: 10.1006/pest.1994.1057

Row | SMILES | logP
1 | O=[N+]([O-])C=C1NCCN1c1ccc(Cl)nc1 | -0.23
2 | O=[N+]([O-])C=C1NCCN1Cc1ccncc1 | -1.05
3 | O=[N+]([O-])C=C1NCCN1CCc1ccc(Cl)nc1 | -0.23
4 | O=[N+]([O-])N=C1NCCN1Cc1cccnc1 | -0.19
5 | O=[N+]([O-])/C=C1/NCCN1Cc1cccnc1 | -1.02
6 | N#CN=C1NCCN1Cc1ccc(Cl)nc1 | 0.77
7 | O=[N+]([O-])C=C1NCCN1Cc1ccccn1 | -0.87
8 | Cc1ccc(CN2CCNC2=C[N+](=O)[O-])cn1 | -0.59
9 | O=[N+]([O-])C=C1NCCN1Cc1ccc(Cl)cc1 | 0.99
10 | CN1CCN(Cc2ccc(Cl)nc2)C1=N[N+](=O)[O-] | 0.26
11 | O=[N+]([O-])C=C1SCCN1Cc1ccc(Cl)nc1 | 0.65
12 | O=[N+]([O-])/C=C1\NCCN1Cc1ccccc1 | 0.33
13 | O=[N+]([O-])C=C1NCCCN1Cc1ccc(Cl)nc1 | -0.62
14 | O=[N+]([O-])/C=C1\NCCN1Cc1ccc(Cl)nc1 | -0.19
